Legend:
[1] = Long term storage stability by powder X-ray diffraction; format: physicochemical; settings: room temperature for 1 year without any humidity controlling
Experimental: (§1) The procedure of powder X-ray diffraction test used for obtaining FIG. 1, FIG. 2, FIG. 7 and FIG. 8 is described as follows:
(§2) The crystalline polymorphs of acetyl-glycine-beta-alanine was analyzed by an X-ray powder Diffractometer, Bruker D8 Advanced, equipped with a Cu anode (λ=1.540600 Angstrom). X-ray source operated at 40 kV, 40 mA. The measuring 2-theta range was from about 5 to 60 degree and step width was 0.05 degree.
Long term storage stability can be found in both crystalline polymorph A and crystalline polymorph B of acetyl-glycine-beta-alanine. The powder X-ray diffraction pattern of the crystalline polymorph A and crystalline polymorph B are shown as FIG. 1 and FIG. 2, wherein the crystalline polymorph A and crystalline polymorph B were stored at room temperature for 1 year without any humidity controlling.

[2] = Thermal stability study by powder X-ray diffraction; format: physicochemical; settings: 140° C. oven with air circulation for 4 hours
Experimental: as §1, §2
Thermal Stability Study for Both of Crystalline Polymorph A and Crystalline Polymorph B of Acetyl-Glycine-Beta-Alanine:
The crystalline polymorph A of acetyl-glycine-beta-alanine and crystalline polymorph B of acetyl-glycine-beta-alanine were stored at 140° C. oven with air circulation for 4 hours, and then analyzed with powder X-ray diffraction.

[3] = Thermodynamic stable crystalline polymorph study: slurry equilibrium; format: physicochemical; settings: 5 g polymorph A + 5 g polymorph B in isopropanol/water 100 g/10 g; 40 to 45° C. 8 hours, then 25 to 30° C. 48 hours
Experimental: Thermodynamic Stable Crystalline Polymorph Study: Slurry Equilibrium
Both of 5 grams of crystalline polymorph A and 5 grams of crystalline polymorph B of acetyl-glycine-beta-alanine were put into a flask. 100 grams of isopropanol and 10 grams of water were added into the flask to form a mixture. The mixture was stirred at 40 to 45° C. for 8 hours and then at 25 to 30° C. for 48 hours. The mixture was cooled to 15 to 20° C. and the crystalline was filtered out. The crystalline was dried and analyzed with powder X-ray diffraction and Fourier transform infrared spectrum.

[4] = Solubility study in different solvents (HPLC); format: physicochemical; settings: for Solubility: room temperature, 30 min
Experimental: The Solubility Study of Crystalline Polymorph A and Polymorph B of Acetyl-Glycine-Beta-Alanine
According to the theory of thermodynamic of polymorphism, the most thermodynamic stable crystalline polymorph has lowest solubility. The solubility of both of the crystalline polymorph A and polymorph B of acetyl-glycine-beta-alanine were measured in different solvents.
The solubility measurement procedure was described as the following. Prepared a saturated acetyl-glycine-beta-alanine solution with 1 gram of test solvents and then stir it for 30 min at room temperature. Collected the solution through a filter and used HPLC to analyze its solubility. The solubility was represented by mg of the polymorphs/grams of the solvent.

[5] = taught in U.S. patent application Ser. No. 13/128,446; cited from earlier work
IL8 = test: In vitro anti-inflammation study, IL8 level after UVB exposure; format: cell-based; settings: human epidermal keratinocytes after exposure on UVB light
melanin formation = settings: taught in U.S. patent application Ser. No. 13/128,446; cited from earlier work
age spot = test: In vivo human study, spot-brightening; settings: after 14 days
[6] = tested on: tissue model of the human epidermis prepared from cultured human keratinocytes and melanocytes; test: Ex vivo whitening test in tissue model of the human epidermis; format: cell-based; settings: 2% of acetyl-glycine-beta-alanine, 9 day
IL-6 = test: In vitro anti-inflammation study, IL-6 level after UVB exposure; format: cell-based; settings: human epidermal keratinocytes after exposure on UVB light
[7] = Ethanol/water: 95/5 (weight ratio)
[8] = Isopropanol/water: 3/1 (weight ratio)

long term storage stability (powder X-ray diffraction pattern) [1] | thermal stability (powder X-ray diffraction pattern) [2] | Solubility [4, 7] | Solubility [4, 8] | Solubility ([4]; Methanol) | Solubility ([4]; Water) | thermodynamic stability (from solubility results) ([4]; concluded from lower solubility in various solvents) | Compound | crystalline form obtained after slurry equilibrium [3] | color stability in the cosmetic formulation [5] | IL8 level (IL8) | inhibiting melanin formation (melanin formation) | age spot reduction (spot-brightening) (age spot) | existing melanin level (whitening efficacy) [6] | IL-6 level (IL-6)
not changed | still not changed | 18.4 mg/g | 62.3 mg/g | 26.5 mg/g | 177.0 mg/g | thermodynamically stable | CC(=O)NCC(=O)NCCC(=O)O [crystalline polymorph A, acetyl-glycine-beta-alanine] | the obtained crystalline was crystalline polymorph A |  |  |  |  |  | 
 |  |  |  |  |  |  | CC(=O)NCC(=O)NCCC(=O)O [acetyl-glycine-beta-alanine] |  | good color stability | reduced | capable of inhibiting melanin formation | 51.67% | −30% | reduced
not changed | changed | 23.9 mg/g | 76.4 mg/g | 32.4 mg/g | 223.2 mg/g |  | CC(=O)NCC(=O)NCCC(=O)O [crystalline polymorph B, acetyl-glycine-beta-alanine] |  |  |  |  |  |  | 

Reference: patent US8927767B2, “Crystalline polymorphs of acetyl-glycine-beta-alanine and process of making the same” (Corum Inc., priority 2013, dated 2015)
